{"source": "patent US20120058932A1", "about": "“ACTIVE INGREDIENT-PEPTIDE CONSTRUCT FOR EXTRACELLULAR CONCENTRATION” (MAX PLANCK-GESELLSCHAFT ZUR FORDERUNG DER WISSENSCHAFTEN …, priority 2008, published 2012)", "origin": "cited, not measured here", "details": "blood cells vs plasma", "data": [{"smiles": "C/C=C/C[C@@H](C)[C@@H](O)[C@H]1C(=O)N[C@@H](CC)C(=O)N(C)CC(=O)N(C)[C@@H](CC(C)C)C(=O)N[C@@H](C(C)C)C(=O)N(C)[C@@H](CC(C)C)C(=O)N[C@@H](C)C(=O)N[C@H](COCCO)C(=O)N(C)[C@@H](CC(C)C)C(=O)N(C)[C@@H](CC(C)C)C(=O)N(C)[C@@H](C(C)C)C(=O)N1C", "note": "[SDZ IMM 125]", "values": [{"measurement": "Concentration in blood cells relative to the surrounding plasma", "result": "approximately 8 ×"}]}]}
